# Assays:
# [1] = Stability testing of the preferred embodiment tablet under accelerated storage conditions (ingredient content as % of claim); type: physicochemical; conditions: 40 +/- 2 deg C and 75 +/- 5% RH, 150 cc white HDPE bottle
# [2] = Dissolution of ingredients from the tablet during accelerated stability testing; type: physicochemical; conditions: 40 +/- 2 deg C and 75 +/- 5% RH, 150 cc white HDPE bottle
Molecule,Result as % of claim at indicated weeks ([1]; 0 wk),Result as % of claim at indicated weeks ([1]; 4 wk),Result as % of claim at indicated weeks ([1]; 8 wk),Result as % of claim at indicated weeks ([1]; 13 wk),Result as % of claim at indicated weeks ([1]; 26 wk),"Dissolution, result as % of claim at indicated weeks ([2]; 0 wk)","Dissolution, result as % of claim at indicated weeks ([2]; 4 wk)","Dissolution, result as % of claim at indicated weeks ([2]; 8 wk)","Dissolution, result as % of claim at indicated weeks ([2]; 13 wk)","Dissolution, result as % of claim at indicated weeks ([2]; 26 wk)"
Vitamin E,126 % of claim,115 % of claim,110 % of claim,125 % of claim,121 % of claim,,,,,
CC1=C(/C=C/C(C)=C/C=C/C(C)=C/C=C/C=C(C)/C=C/C=C(C)/C=C/C2=C(C)CCCC2(C)C)C(C)(C)CCC1 [Beta Carotene],123 % of claim,139 % of claim,130 % of claim,144 % of claim,124 % of claim,,,,,
Nc1nc2ncc(CNc3ccc(C(=O)N[C@@H](CCC(=O)O)C(=O)O)cc3)nc2c(=O)[nH]1 [Folic Acid],169 % of claim,132 % of claim,125 % of claim,120 % of claim,117 % of claim,,,,,
Cc1ncc(CO)c(CO)c1O.Cl [Vitamin B6],116 % of claim,109 % of claim,110 % of claim,137 % of claim,114 % of claim,,,,,
[Mn+2] [Manganese],119 % of claim,114 % of claim,115 % of claim,115 % of claim,113 % of claim,,,,,
[Zn] [Zinc],121 % of claim,109 % of claim,117 % of claim,108 % of claim,112 % of claim,117 % of claim,102 % of claim,104 % of claim,107 % of claim,
[Se] [Selenium],103 % of claim,136 % of claim,123 % of claim,129 % of claim,126 % of claim,,,,,
Vitamin A,136 % of claim,134 % of claim,113 % of claim,106 % of claim,110 % of claim,,,,,
CC(C)=CCC/C(C)=C/C=C/C(C)=C/C=C/C(C)=C/C=C/C=C(C)/C=C/C=C(C)/C=C/C=C(\C)CCC=C(C)C [Lycopene],131 % of claim,144 % of claim,170 % of claim,156 % of claim,150 % of claim,,,,,
"Cc1cc2nc3c(=O)[nH]c(=O)nc-3n(C[C@H](O)[C@H](O)[C@H](O)CO)c2cc1C [Vitamin B2, Riboflavin]",132 % of claim,123 % of claim,125 % of claim,123 % of claim,123 % of claim,133 % of claim,120 % of claim,109 % of claim,119 % of claim,125 % of claim
Silicon,108 % of claim,,109 % of claim,122 % of claim,107 % of claim,,,,,
O=C1O[C@H]([C@@H](O)CO)C(O)=C1O [Vitamin C],108 % of claim,106 % of claim,103 % of claim,114 % of claim,104 % of claim,,,,,
O=C(O)CCCC[C@@H]1SC[C@@H]2NC(=O)N[C@@H]21 [Biotin],105 % of claim,101 % of claim,100 % of claim,114 % of claim,93.0 % of claim,,,,,
[Cr] [Chromium],139 % of claim,128 % of claim,120 % of claim,133 % of claim,121 % of claim,,,,,
[Cu] [Copper],115 % of claim,111 % of claim,111 % of claim,114 % of claim,109 % of claim,,,,,
[Ca+2] [Calcium],,,,120 % of claim,118 % of claim,,,,119 % of claim,115 % of claim
